Reference: ChEMBL document CHEMBL4673259, “Discovery of isoquinolinone and naphthyridinone-based inhibitors of poly(ADP-ribose) polymerase-1 (PARP1) as anticancer agents: Structure activity relationship and preclinical characterization” (Bioorg Med Chem, 2020)
Active and inactive are the calls of the source. The rule behind the calls is not given here.

Legend:
SK-ES1 [1] = assay: Potentiation of anticancer activity against human SK-ES-1 cells harboring EWSF1 translocation xenografted in SCID/nude mouse assessed as tumor growth inhibition at 0.15 mg/kg, po bid for 12 days co-administered with TMZ measured up to 9 weeks post drug administration; format: functional; conditions: 288 h, time 12 day
[2] = AUClast in BALB/c mouse at 1 mg/kg, iv measured up to 24 hrs by LC-MS/MS analysis; format: ADME, organism-based; design: route intravenous, dose 1 mg/kg, time <=24; conditions: in vivo
MDA-MB-436 [3] = assay: Anticancer activity against human MDA-MB-436 cells harboring BRCA mutant xenografted in SCID/nude mouse assessed as tumor growth regression at 0.05 mg/kg, po bid and measured up to 5 weeks post-drug administration; format: functional; conditions: MDA-MB-436, po, 840 h, time weeks <=5
[4] = molecular target: 5-hydroxytryptamine receptor 2B (Homo sapiens) (UniProt P41595); assay: Displacement of [3H]mesulergine from human recombinant 5-HT2B receptor at 10 uM incubated for 60 mins by radiometric scintillation analysis
Sequence of 5-hydroxytryptamine receptor 2B (Homo sapiens) (P41595 whole entry): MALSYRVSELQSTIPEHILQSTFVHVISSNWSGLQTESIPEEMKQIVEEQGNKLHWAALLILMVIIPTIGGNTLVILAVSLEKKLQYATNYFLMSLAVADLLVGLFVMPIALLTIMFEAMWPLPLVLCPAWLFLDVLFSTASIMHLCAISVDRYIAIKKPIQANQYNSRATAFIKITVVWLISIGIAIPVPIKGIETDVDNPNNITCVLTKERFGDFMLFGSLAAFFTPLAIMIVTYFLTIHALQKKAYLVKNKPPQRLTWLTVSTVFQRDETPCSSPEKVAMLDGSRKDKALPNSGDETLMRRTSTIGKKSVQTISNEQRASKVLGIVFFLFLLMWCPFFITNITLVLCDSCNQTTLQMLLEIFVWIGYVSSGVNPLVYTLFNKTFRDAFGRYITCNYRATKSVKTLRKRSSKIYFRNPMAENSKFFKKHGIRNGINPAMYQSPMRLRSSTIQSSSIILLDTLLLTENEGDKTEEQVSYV

CYP2E1 = CYP2E1 (Homo sapiens, UniProt P05181); assay: Inhibition of CYP2E1 (unknown origin) at 10 uM relative to control; format: ADME
Sequence of CYP2E1 (P05181 whole entry): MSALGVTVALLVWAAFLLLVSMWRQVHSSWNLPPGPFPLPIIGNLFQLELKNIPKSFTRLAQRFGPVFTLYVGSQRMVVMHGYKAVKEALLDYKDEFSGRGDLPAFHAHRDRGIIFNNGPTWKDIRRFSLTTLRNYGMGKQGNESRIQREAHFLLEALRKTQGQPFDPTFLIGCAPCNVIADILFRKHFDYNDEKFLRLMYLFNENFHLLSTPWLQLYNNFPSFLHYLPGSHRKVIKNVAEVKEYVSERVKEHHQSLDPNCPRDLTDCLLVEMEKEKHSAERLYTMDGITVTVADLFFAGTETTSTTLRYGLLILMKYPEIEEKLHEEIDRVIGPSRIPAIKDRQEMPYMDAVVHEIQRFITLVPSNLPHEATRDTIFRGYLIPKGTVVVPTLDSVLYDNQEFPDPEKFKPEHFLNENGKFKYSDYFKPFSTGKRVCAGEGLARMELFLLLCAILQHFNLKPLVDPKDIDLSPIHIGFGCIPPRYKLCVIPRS

[5] = Metabolic stability of the compound in human plasma measured up to 4 hrs; format: ADME, cell-free; conditions: read-out: Stabilty
CAPAN-1 [6] = assay: Antitumor activity against human CAPAN1 cells xenografted in SCID/nude mouse assessed as tumor growth inhibition at 0.3 mg/kg, po bid measured up to 5 weeks post drug administration; format: functional; conditions: CAPAN-1, po, 840 h, time weeks <=5
[7] = Toxicity in rat assessed as NOAEL; conditions: in vivo
[8] = Metabolic stability of the compound in rat plasma measured up to 4 hrs; format: ADME, cell-free; conditions: read-out: Stabilty
[9] = molecular target: Mitogen-activated protein kinase kinase kinase 14 (Homo sapiens) (UniProt Q99558); assay: Inhibition of NIK (unknown origin) at 10 uM
Sequence of Mitogen-activated protein kinase kinase kinase 14 (Homo sapiens) (Q99558 whole entry, looked up): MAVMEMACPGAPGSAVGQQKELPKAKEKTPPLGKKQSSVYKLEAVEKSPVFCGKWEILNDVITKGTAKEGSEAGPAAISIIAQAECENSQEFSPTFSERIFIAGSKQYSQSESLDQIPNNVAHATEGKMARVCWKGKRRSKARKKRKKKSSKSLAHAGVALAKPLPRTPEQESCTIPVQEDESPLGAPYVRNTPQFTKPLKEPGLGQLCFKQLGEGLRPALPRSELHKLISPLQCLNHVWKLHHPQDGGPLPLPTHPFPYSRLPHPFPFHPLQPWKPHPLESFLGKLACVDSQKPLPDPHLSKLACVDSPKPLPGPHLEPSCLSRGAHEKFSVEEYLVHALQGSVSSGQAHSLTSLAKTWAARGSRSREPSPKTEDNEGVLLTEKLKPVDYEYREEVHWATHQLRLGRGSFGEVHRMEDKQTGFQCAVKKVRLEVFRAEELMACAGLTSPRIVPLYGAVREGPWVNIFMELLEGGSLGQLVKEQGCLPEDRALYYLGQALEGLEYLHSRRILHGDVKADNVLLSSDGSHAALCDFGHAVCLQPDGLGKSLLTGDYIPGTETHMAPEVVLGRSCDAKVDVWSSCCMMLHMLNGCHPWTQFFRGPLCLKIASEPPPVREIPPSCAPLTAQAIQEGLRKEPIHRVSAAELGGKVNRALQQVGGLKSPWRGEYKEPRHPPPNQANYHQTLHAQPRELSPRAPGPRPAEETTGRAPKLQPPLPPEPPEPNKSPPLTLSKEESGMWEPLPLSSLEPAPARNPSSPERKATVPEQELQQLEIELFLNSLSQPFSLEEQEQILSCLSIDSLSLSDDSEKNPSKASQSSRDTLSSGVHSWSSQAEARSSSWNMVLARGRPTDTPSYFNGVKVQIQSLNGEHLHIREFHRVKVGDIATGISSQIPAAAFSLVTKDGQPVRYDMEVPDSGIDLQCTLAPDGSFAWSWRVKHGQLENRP

[10] = Toxicity against SCID/nude mouse xenografted with human SK-ES-1 cells harboring EWSF1 translocation assessed as body weight loss at 0.15 mg/kg, po bid for 12 days co-administered with 35 mg/kg, po TMZ; format: organism-based; conditions: in vivo, 288 h, time 12 day
[11] = Clearance in BALB/c mouse at 1 mg/kg, iv measured up to 24 hrs by LC-MS/MS analysis; format: ADME, organism-based; conditions: in vivo
[12] = molecular target: Poly [ADP-ribose] polymerase tankyrase-2 (Homo sapiens, UniProt Q9H2K2); assay: Inhibition of TNKS2 (unknown origin)
[13] = Protein binding in dog plasma; format: ADME, cell-free, Canis lupus familiaris; conditions: read-out: PPB (converted)
[14] = Toxicity against SCID/nude mouse xenografted with human MDA-MB-436 cells harboring BRCA mutant assessed as body weight loss at 0.15 mg/kg, po bid for 12 days co-administered with 35 mg/kg, po TMZ; format: organism-based; conditions: in vivo, 288 h, time 12 day
[15] = Cmax in BALB/c mouse at 1 mg/kg, iv measured up to 24 hrs by LC-MS/MS analysis; format: ADME, organism-based; design: route intravenous, dose 1 mg/kg, time <=24; conditions: in vivo
CYP2B6 = CYP2B6 (Homo sapiens, UniProt P20813); assay: Inhibition of CYP2B6 (unknown origin) at 10 uM relative to control; format: ADME
Sequence of CYP2B6 (P20813 whole entry): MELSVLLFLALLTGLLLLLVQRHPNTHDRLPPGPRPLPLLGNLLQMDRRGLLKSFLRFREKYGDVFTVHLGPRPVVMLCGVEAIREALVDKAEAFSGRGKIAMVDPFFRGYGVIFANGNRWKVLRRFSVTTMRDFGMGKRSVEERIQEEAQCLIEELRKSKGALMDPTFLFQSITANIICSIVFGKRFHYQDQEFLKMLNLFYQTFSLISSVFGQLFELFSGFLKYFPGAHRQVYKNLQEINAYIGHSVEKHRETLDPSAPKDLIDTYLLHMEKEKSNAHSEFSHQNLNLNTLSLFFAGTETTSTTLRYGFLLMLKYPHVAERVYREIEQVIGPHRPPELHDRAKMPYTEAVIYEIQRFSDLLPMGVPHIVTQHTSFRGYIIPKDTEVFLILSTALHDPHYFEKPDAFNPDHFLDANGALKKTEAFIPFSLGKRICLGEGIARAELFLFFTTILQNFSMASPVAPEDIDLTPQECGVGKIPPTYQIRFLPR

MDA-MB-436 [16] = assay: Potentiation of anticancer activity against human MDA-MB-436 cells harboring BRCA mutant xenografted in SCID/nude mouse assessed as tumor growth inhibition at 0.15 mg/kg, po bid for 12 days co-administered with TMZ measured after drug administration cessation; format: functional, organism-based; conditions: time 12.0 day
SK-ES1 [17] = assay: Antitumor activity against human SK-ES-1 cells xenografted in SCID/nude mouse assessed as tumor growth inhibition at 0.45 mg/kg, po bid measured up to 5 weeks post drug administration; format: functional; conditions: 840 h, time weeks <=5
[18] = Cmax in BALB/c mouse at 10 mg/kg, po measured up to 24 hrs by LC-MS/MS analysis; format: ADME, organism-based; design: route oral, dose 10 mg/kg, time <=24; conditions: in vivo
[19] = Half life in BALB/c mouse at 1 mg/kg, iv measured up to 24 hrs by LC-MS/MS analysis; format: ADME, organism-based; conditions: in vivo
CYP2C19 = CYP2C19 (Homo sapiens, UniProt P33261); assay: Inhibition of CYP2C19 (unknown origin) at 10 uM relative to control; format: ADME
Sequence of CYP2C19 (P33261 whole entry): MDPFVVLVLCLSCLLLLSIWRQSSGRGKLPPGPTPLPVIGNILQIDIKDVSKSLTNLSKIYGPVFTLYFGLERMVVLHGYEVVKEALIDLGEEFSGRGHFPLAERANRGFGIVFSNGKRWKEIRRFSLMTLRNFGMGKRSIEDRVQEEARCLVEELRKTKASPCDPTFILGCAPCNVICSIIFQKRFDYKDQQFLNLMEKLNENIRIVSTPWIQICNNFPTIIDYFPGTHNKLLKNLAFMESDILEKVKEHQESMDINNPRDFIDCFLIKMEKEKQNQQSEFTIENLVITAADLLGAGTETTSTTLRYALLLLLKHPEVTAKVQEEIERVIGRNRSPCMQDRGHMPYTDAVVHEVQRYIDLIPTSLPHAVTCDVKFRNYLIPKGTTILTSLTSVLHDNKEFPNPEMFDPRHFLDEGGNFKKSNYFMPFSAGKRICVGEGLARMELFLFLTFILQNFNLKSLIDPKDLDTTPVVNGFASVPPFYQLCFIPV

MDA-MB-436 [20] = assay: Cytotoxicity against human MDA-MB-436 cells assessed as inhibition of cell viability incubated for 14 days with three intermittent intervals by CellTiterGlo luminescence assay; conditions: MDA-MB-436, 336 h
[21] = Oral bioavailability in BALB/c mouse at 10 mg/kg measured up to 24 hrs by LC-MS/MS analysis; format: ADME, organism-based; conditions: in vivo
[22] = Toxicity in rat assessed as NOAEL for CNS effect; conditions: in vivo
HEK293 = assay: Cytotoxicity against HEK293 cells at 1000 nM relative to control; format: cell-based; conditions: human, hek293, 1 µM
[23] = molecular target: Poly [ADP-ribose] polymerase 1 (Homo sapiens, UniProt P09874); assay: Inhibition of N-terminal GST-tagged human full length PARP1 (2 to 1041 residues) expressed in baculovirus infected Sf9 cells using histone mixture (H2A and H2B) and biotinylated NAD+ as substrate in presence of activated DNA incubated for 60 mins by chemiluminescence assay
Sequence of Poly [ADP-ribose] polymerase 1 (P09874 whole entry, the tested form may be a part): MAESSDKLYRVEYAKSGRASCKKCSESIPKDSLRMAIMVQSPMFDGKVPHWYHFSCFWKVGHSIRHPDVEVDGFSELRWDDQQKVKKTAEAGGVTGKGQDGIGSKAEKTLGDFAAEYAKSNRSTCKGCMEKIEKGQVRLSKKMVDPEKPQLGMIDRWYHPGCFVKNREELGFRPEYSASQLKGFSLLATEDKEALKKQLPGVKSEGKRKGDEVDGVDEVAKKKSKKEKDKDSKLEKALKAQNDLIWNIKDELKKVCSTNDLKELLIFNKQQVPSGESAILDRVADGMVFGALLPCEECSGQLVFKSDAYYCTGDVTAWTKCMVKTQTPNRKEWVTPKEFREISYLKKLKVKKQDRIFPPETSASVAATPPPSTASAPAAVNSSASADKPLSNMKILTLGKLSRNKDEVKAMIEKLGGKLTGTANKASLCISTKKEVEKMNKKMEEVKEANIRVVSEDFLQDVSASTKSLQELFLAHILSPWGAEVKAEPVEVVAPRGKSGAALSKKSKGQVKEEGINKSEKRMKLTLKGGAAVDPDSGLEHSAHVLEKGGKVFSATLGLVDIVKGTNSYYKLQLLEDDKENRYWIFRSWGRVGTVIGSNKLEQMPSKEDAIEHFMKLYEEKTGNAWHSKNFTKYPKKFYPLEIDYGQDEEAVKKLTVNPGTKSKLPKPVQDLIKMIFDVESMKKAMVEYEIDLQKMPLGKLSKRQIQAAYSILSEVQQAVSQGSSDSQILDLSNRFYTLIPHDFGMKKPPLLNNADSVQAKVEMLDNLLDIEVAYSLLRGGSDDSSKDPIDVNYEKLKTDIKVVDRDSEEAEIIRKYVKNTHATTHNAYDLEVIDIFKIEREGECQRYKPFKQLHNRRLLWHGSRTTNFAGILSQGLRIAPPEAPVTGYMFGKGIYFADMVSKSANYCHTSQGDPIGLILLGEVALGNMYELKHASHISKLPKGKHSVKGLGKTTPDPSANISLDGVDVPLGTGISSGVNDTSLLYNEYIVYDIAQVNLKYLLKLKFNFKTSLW

[24] = molecular target: Adrenergic receptor alpha-1 (Homo sapiens) (UniProt P35348+P25100+P35368); assay: Binding affinity to alpha1 adrenoceptor (unknown origin) at 10 uM; format: protein assay
CAPAN-1 [25] = assay: Potentiation of anticancer activity against human CAPAN-1 cells harboring BRCA mutant xenografted in SCID/nude mouse assessed as tumor growth inhibition at 0.15 mg/kg, po bid for 12 days co-administered with TMZ measured up to 9 weeks post-drug administration; format: functional; conditions: CAPAN-1, po, 288 h, time 12 day
MDA-MB-436 [26] = assay: Cytotoxicity against human MDA-MB-436 cells assessed as inhibition of cell viability incubated for 4 days by CellTiterGlo luminescence assay; conditions: MDA-MB-436, 96 h
[27] = AUClast in BALB/c mouse at 10 mg/kg, po measured up to 24 hrs by LC-MS/MS analysis; format: ADME, organism-based; design: route oral, dose 10 mg/kg, time <=24; conditions: in vivo
[28] = Toxicity in rat assessed as NOAEL for respiratory effect; conditions: in vivo
[29] = molecular target: Poly [ADP-ribose] polymerase 2 (Homo sapiens, UniProt Q9UGN5); assay: Inhibition of N-terminal GST-tagged human PARP2 (2 to 583 residues) expressed in baculovirus infected Sf9 cells using histone mixture (H2A and H2B) and biotinylated NAD+ as substrate in presence of activated DNA incubated for 60 mins by chemiluminescence assay
Sequence of Poly [ADP-ribose] polymerase 2 (Q9UGN5 whole entry, the tested form may be a part): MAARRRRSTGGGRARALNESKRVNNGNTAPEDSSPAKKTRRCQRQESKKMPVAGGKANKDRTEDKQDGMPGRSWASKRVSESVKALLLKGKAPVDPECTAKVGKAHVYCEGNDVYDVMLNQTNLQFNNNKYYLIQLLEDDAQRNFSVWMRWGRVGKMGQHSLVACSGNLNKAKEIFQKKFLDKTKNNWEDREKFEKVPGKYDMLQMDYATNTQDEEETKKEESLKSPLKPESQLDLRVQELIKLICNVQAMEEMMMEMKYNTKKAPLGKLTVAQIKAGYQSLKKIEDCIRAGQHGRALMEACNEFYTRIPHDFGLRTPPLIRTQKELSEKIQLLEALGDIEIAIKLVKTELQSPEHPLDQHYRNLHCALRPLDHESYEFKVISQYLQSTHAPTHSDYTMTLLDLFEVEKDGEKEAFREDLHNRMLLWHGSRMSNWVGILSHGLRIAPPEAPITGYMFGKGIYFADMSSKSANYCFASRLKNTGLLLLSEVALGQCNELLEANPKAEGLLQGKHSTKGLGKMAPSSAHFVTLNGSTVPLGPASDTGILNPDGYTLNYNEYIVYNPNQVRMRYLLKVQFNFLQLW

MDA-MB-436 [30] = assay: Potentiation of anticancer activity against human MDA-MB-436 cells harboring BRCA mutant xenografted in SCID/nude mouse assessed as tumor growth inhibition at 0.15 mg/kg, po bid for 12 days co-administered with TMZ measured up to 9 weeks post drug administration; format: functional; conditions: MDA-MB-436, po, 288 h, time 12 day
[31] = molecular target: Protein mono-ADP-ribosyltransferase PARP3 (Homo sapiens, UniProt Q9Y6F1); assay: Inhibition of PARP3 (unknown origin)
Sequence of Protein mono-ADP-ribosyltransferase PARP3 (Q9Y6F1 whole entry): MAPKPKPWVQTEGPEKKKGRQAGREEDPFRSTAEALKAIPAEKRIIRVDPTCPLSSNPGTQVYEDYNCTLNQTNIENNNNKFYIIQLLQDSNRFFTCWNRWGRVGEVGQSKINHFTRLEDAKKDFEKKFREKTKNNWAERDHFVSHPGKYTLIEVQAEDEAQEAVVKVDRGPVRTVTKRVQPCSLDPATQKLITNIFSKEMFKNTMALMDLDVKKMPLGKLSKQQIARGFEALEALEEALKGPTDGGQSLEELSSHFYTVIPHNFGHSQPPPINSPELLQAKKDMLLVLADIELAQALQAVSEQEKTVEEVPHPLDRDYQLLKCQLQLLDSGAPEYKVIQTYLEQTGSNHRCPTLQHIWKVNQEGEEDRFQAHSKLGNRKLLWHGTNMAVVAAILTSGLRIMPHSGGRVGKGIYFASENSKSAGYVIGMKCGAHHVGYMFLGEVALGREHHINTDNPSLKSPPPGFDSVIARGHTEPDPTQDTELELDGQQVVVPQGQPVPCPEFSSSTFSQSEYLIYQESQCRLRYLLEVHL

[32] = Protein binding in human plasma; format: ADME, cell-free; conditions: read-out: PPB (converted)
[33] = Protein binding in mouse plasma; format: ADME, cell-free; conditions: read-out: PPB (converted)

## N#Cc1ccc(N2CCN([C@H]3C=C(c4cc5ncccc5c(=O)[nH]4)CC3)CC2)cc1
SK-ES1 [1]
  inhibition in vivo at 0.15 mg/kg: 89%
[2]
  AUC(0-t) at 24 h: 94 µM·h
MDA-MB-436 [3]
  inhibition in vivo at 0.05 mg/kg: 83%
[4]
  Activity: 70%
CYP2E1
  inhibition at 10 µM: ≤ 23%
[5]
  remaining at 4 h: 80%
CAPAN-1 [6]
  inhibition in vivo at 0.3 mg/kg: 49.6%
[7]
  NOAEL: 15 mg/kg/day
[8]
  remaining at 4 h: 80%
[9]
  inhibition: 65%
[10]
  Activity: Non-Toxic
[11]
  clearance: 0.4 mL/min/kg
[12]
  IC50: 74 nM
[13]
  fraction unbound: 0.125
[14]
  Activity: Non-Toxic
[15]
  Cmax: 11 µM
CYP2B6
  inhibition at 10 µM: ≤ 23%
MDA-MB-436 [16]
  Activity: Active
SK-ES1 [17]
  inhibition in vivo at 0.45 mg/kg: 20%
[18]
  Cmax: 31 µM
[19]
  half-life: 5.1 h
CYP2C19
  inhibition at 10 µM: ≤ 23%
MDA-MB-436 [20]
  IC50: 0.0008 nM
[21]
  bioavailability: 43%
[22]
  NOAEL: 30 mg/kg/day
HEK293
  Activity: 72%
[23]
  IC50: 1.1 nM
[24]
  Activity: 70%
CAPAN-1 [25]
  inhibition in vivo at 0.15 mg/kg: 88%
MDA-MB-436 [26]
  IC50: 0.035 nM
[27]
  AUC(0-t) at 24 h: 403 µM·h
[28]
  NOAEL: 30 mg/kg/day
[29]
  IC50: 8.1 nM
MDA-MB-436 [30]
  inhibition in vivo at 0.15 mg/kg: > 90%
[31]
  IC50: 8000 nM
[32]
  fraction unbound: 0.017
[33]
  fraction unbound: 0.074
